Measurements from patent US10913738B2 (BRISTOL-MYERS SQUIBB COMPANY, priority 2017, dated 2021).
Where two headings read alike, the source gives them in different places.

How the values were obtained:
[1] = tested on: MLKL phosphorylation in HT29-L23 human colorectal adenocarcinoma cells; assay: MLKL Phosphorylation High-Content Assay; type: cell-based; conditions: Homo sapiens
Outline: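 IC50 and Ymax obtained by 4-parameter logistic fitting of MLKL phosphorylation, measured as mean circ-ring average intensity ratio from high-content images. Staining used an anti-phospho-S358 MLKL antibody overnight at 4° C., following six-hour cell incubation at 37° C.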

[2] = target: T1, His-GST-TVMV-hRIPK1(1-324) (Homo sapiens, UniProt Q13546); assay: RIPK1 HTRF Binding Assay
T1 construct: The coding region of human RIPK1(1-324) flanked by NdeI site at 5′ end; made in house; host or cells: Spodoptera frugiperda (Sf9) insect cells, baculovirus
T1 sequence (Q13546 1-324): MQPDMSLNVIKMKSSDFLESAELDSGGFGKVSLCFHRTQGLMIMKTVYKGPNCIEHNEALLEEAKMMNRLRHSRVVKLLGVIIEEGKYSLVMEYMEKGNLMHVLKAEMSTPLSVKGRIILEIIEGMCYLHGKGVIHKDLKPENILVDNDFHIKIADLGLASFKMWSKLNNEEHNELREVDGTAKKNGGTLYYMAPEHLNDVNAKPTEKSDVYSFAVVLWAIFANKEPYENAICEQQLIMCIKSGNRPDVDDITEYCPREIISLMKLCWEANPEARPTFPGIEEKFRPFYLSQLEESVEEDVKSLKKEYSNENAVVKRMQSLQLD

[3] = x marks IC50 class <20 nM, read-out: pMLKL cell activity <20 nM
[4] = x marks IC50 class <20 nM, read-out: RIPK1 HTRF binding <20 nM
[5] = x marks IC50 class 20-200 nM, read-out: pMLKL cell activity 20-200 nM
[6] = x marks IC50 class 20-200 nM, read-out: RIPK1 HTRF binding 20-200 nM
[7] = x marks IC50 class >200 nM, read-out: pMLKL cell activity >200 nM

Row | Compound | IC50 [1, 3] | IC50 [2, 4] | IC50 [1, 5] | IC50 [2, 6] | IC50 [1, 7]
1 | COc1nc(C)c(-c2ccn3nc(N)nc3c2)cc1C(=O)NCCC(C)c1ccccc1 (stereo not shown) [Example 218, 5-{2-amino-[1,2,4]triazolo[1,5-a]pyridin-7-yl}-2-methoxy-6-methyl-N-(3-phenylbutyl)pyridine-3-carboxamide] | < 20 nM | < 20 nM |  |  | 
2 | COc1nc(C)c(-c2ccn3nc(N)nc3c2)cc1C(=O)NCc1ccccc1OC1CCCC1 [Example 219, 5-{2-amino-[1,2,4]triazolo[1,5-a]pyridin-7-yl}-N-{[2-(cyclopentyloxy)phenyl]methyl}-2-methoxy-6-methylpyridine-3-carboxamide] | < 20 nM | < 20 nM |  |  | 
3 | COc1nc(C)c(-c2ccn3nc(N)nc3c2)cc1C(=O)NCc1c(F)cccc1OCC1CCCC1 [Example 220, 5-{2-amino-[1,2,4]triazolo[1,5-a]pyridin-7-yl}-N-{[2-(cyclopentylmethoxy)-6-fluorophenyl]methyl}-2-methoxy-6-methylpyridine-3-carboxamide] |  | < 20 nM | 20 to 200 nM |  | 
4 | COc1nc(C)c(-c2ccn3nc(N)nc3c2)cc1C(=O)NCc1ccccc1OCC1CC1 [Example 221, 5-{2-amino-[1,2,4]triazolo[1,5-a]pyridin-7-yl}-N-{[2-(cyclopropylmethoxy)phenyl]methyl}-2-methoxy-6-methylpyridine-3-carboxamide] | < 20 nM | < 20 nM |  |  | 
5 | [2H]C([2H])(NC(=O)c1cc(-c2ccn3nc(N)nc3c2)c(C)nc1OC)c1cc(OC(F)(F)F)ccc1F [Example 222, 5-{2-amino-[1,2,4]triazolo[1,5-a]pyridin-7-yl}-N-{[2-fluoro-5-(trifluoromethoxy)phenyl](deutero)methyl}-2-methoxy-6-methylpyridine-3-carboxamide] | < 20 nM | < 20 nM |  |  | 
6 | COc1nc(C)c(-c2ccn3nc(N)nc3c2)cc1C(=O)NC(C)c1cccc(OC(F)(F)F)c1 (stereo not shown) [Example 223, 5-{2-amino-[1,2,4]triazolo[1,5-a]pyridin-7-yl}-2-methoxy-6-methyl-N-{1-[3-(trifluoromethoxy)phenyl]ethyl}pyridine-3-carboxamide] |  | < 20 nM | 20 to 200 nM |  | 
7 | Cc1ncc(-c2ccn3nc(N)nc3c2)cc1C(=O)NCC[C@@H](O)c1ccc(Cl)cc1 [Example 224] |  | < 20 nM | 20 to 200 nM |  | 
8 | Cc1ncc(-c2ccn3nc(N)nc3c2)cc1C(=O)NCC[C@H](O)c1ccc(Cl)cc1 [Example 225] |  |  | 20 to 200 nM | 20 to 200 nM | 
9 | Cc1ncc(-c2ccn3nc(N)nc3c2)cc1C(=O)NCc1cc(C(F)(F)F)ccc1F [Example 226, 5-{2-amino-[1,2,4]triazolo[1,5-a]pyridin-7-yl}-N-{[2-fluoro-5-(trifluoromethyl)phenyl]methyl}-2-methylpyridine-3-carboxamide] |  |  | 20 to 200 nM | 20 to 200 nM | 
10 | Cc1ncc(-c2ccn3nc(N)nc3c2)cc1C(=O)NCCc1cccc(OC(F)(F)F)c1 [Example 227, 5-{2-amino-[1,2,4]triazolo[1,5-a]pyridin-7-yl}-2-methyl-N-{2-[3-(trifluoromethoxy)phenyl]ethyl}pyridine-3-carboxamide] |  |  |  | 20 to 200 nM | > 200 nM
11 | Cc1ncc(-c2ccn3nc(N)nc3c2)cc1C(=O)NCc1c(F)cc(F)cc1OCC1CCCC1 [Example 228] |  | < 20 nM | 20 to 200 nM |  | 
12 | Cc1ncc(-c2ccn3nc(N)nc3c2)cc1C(=O)NCc1cc(OC(F)(F)F)ccc1F [Example 229, 5-{2-amino-[1,2,4]triazolo[1,5-a]pyridin-7-yl}-N-{[2-fluoro-5-(trifluoromethoxy)phenyl]methyl}-2-methylpyridine-3-carboxamide] |  | < 20 nM | 20 to 200 nM |  | 
13 | Cc1ncc(-c2ccn3nc(N)nc3c2)cc1C(=O)NCc1ccccc1OCC1CCCCC1 [Example 230, 5-{2-amino-[1,2,4]triazolo[1,5-a]pyridin-7-yl}-N-{[2-(cyclohexylmethoxy)phenyl]methyl}-2-methylpyridine-3-carboxamide] |  | < 20 nM | 20 to 200 nM |  | 
14 | Cc1ncc(-c2ccn3nc(N)nc3c2)cc1C(=O)NCc1cccnc1OCC1CCCC1 [Example 231, 5-{2-amino-[1,2,4]triazolo[1,5-a]pyridin-7-yl}-N-{[2-(cyclopentylmethoxy)pyridin-3-yl]methyl}-2-methylpyridine-3-carboxamide] |  |  |  | 20 to 200 nM | > 200 nM
15 | Cc1ncc(-c2ccn3nc(N)nc3c2)cc1C(=O)NCc1cc(F)cc(F)c1OCC1CCCC1 [Example 232] |  | < 20 nM | 20 to 200 nM |  | 
16 | Cc1ncc(-c2ccn3nc(N)nc3c2)cc1C(=O)NCc1cccnc1OCC1CCC1 [Example 233, 5-{2-amino-[1,2,4]triazolo[1,5-a]pyridin-7-yl}-N-{[2-(cyclobutylmethoxy)pyridin-3-yl]methyl}-2-methylpyridine-3-carboxamide] |  | < 20 nM |  |  | > 200 nM
17 | Cc1ncc(-c2ccn3nc(N)nc3c2)cc1C(=O)NC(C)c1cccc(OC(F)(F)F)c1 (stereo not shown) [Example 234, 5-{2-amino-[1,2,4]triazolo[1,5-a]pyridin-7-yl}-2-methyl-N-{1-[3-(trifluoromethoxy)phenyl]ethyl}pyridine-3-carboxamide] |  |  |  | 20 to 200 nM | > 200 nM
18 | Cc1ncc(-c2ccn3nc(N)nc3c2)cc1C(=O)NCc1cc(F)cc(F)c1OCC1CC1 [Example 235, 5-{2-amino-[1,2,4]triazolo[1,5-a]pyridin-7-yl}-N-{[2-(cyclopropylmethoxy)-3,5-difluorophenyl]methyl}-2-methylpyridine-3-carboxamide] |  | < 20 nM | 20 to 200 nM |  | 
19 | Cc1ncc(-c2ccn3nc(N)nc3c2)cc1C(=O)NCc1ncccc1OCC1CCC1 [Example 236, 5-{2-amino-[1,2,4]triazolo[1,5-a]pyridin-7-yl}-N-{[3-(cyclobutylmethoxy)pyridin-2-yl]methyl}-2-methypyridine-3-carboxamide] |  |  | 20 to 200 nM | 20 to 200 nM | 
20 | Cc1ncc(-c2ccn3nc(N)nc3c2)cc1C(=O)NCc1ccccc1OC1CCC(C)C1 (stereo not shown) [Example 237, 5-{2-amino-[1,2,4]triazolo[1,5-a]pyridin-7-yl}-2-methyl-N-({2-[(3-methylcyclopentyl)oxy]phenyl}methyl)pyridine-3-carboxamide] | < 20 nM | < 20 nM |  |  | 
21 | Cc1ncc(-c2ccn3nc(N)nc3c2)cc1C(=O)NCc1ncccc1OCC1CC1 [Example 238, 5-{2-amino-[1,2,4]triazolo[1,5-a]pyridin-7-yl}-N-{[3-(cyclopropylmethoxy)pyridin-2-yl]methyl}-2-methylpyridine-3-carboxamide] |  |  | 20 to 200 nM | 20 to 200 nM | 
22 | Cc1ncc(-c2ccn3nc(N)nc3c2)cc1C(=O)NCc1ccccc1OC1CCCCC1 [Example 239, 5-{2-amino-[1,2,4]triazolo[1,5-a]pyridin-7-yl}-N-{[2-(cyclohexyloxy)phenyl]methyl}-2-methylpyridine-3-carboxamide] | < 20 nM | < 20 nM |  |  | 
23 | Cc1ncc(-c2ccn3nc(N)nc3c2)cc1C(=O)NCc1cccnc1OC1CCCC1 [Example 240, 5-{2-amino-[1,2,4]triazolo[1,5-a]pyridin-7-yl}-N-{[2-(cyclopentyloxy)pyridin-3-yl]methyl}-2-methylpyridine-3-carboxamide] |  | < 20 nM | 20 to 200 nM |  | 
